PubChem BioAssay AID1963849 (Molecular Pharmacology Branch, DTP, NCI, 2024)

System: 299254-011-R-J1-PDC complex spheroid viability
Assay: Anticancer human tumor 299254-011-R-J1-PDC patient-derived melanoma cell line growth inhibition [POLQ]
Details: for IC50: curve of first compound; for viability, T/C: stronger effect = lower value
How it was run: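 Patient-derived tumour cells were co-cultured with HUVEC and mesenchymal stem cells as multicellular spheroids at 37 °C. They were treated with POLQ inhibitors (novobiocin, ART-558, RP6685) alone or combined with other agents. Top concentrations were at or near clinical Cmax (otherwise 10 microM; SN-38 at 1 microM), decreasing in half-log steps.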

[1] = second compound 0.0316 µM, first compound 0.0316 µM
[2] = second compound 0.0316 µM, first compound 0.1 µM
[3] = second compound 0.1 µM, first compound 0.0316 µM
[4] = second compound 0.1 µM, first compound 0.1 µM
[5] = second compound 0.316 µM, first compound 0.0316 µM
[6] = second compound 0.316 µM, first compound 0.1 µM
[7] = second compound 1 µM, first compound 0.0316 µM
[8] = second compound 1 µM, first compound 0.1 µM
[9] = second compound 3.16 µM, first compound 0.0316 µM
[10] = second compound 3.16 µM, first compound 0.1 µM
[11] = second compound 10 µM, first compound 0.0316 µM
[12] = second compound 10 µM, first compound 0.1 µM
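Further: spheroids exposed to drugs for one week before measurement.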
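Wherever viability, T/C is given: percent viability relative to DMSO vehicle control taken as 100%.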

For `O=c1[nH]cc(F)c(=O)[nH]1` + Nc1ccc(C#CCN(C(=O)Cc2ncc(C(F)(F)F)cc2C(F)(F)F)c2ccc(F)cc2)nn1, the IC50 (second compound 0.0316 µM) was greater than 10 µM, the IC50 (second compound 0.1 µM) was greater than 10 µM and the IC50 (second compound 0.316 µM) was greater than 10 µM. The IC50 (second compound 1 µM) was greater than 10 µM, the IC50 (second compound 3.16 µM) was greater than 10 µM and the IC50 (second compound 10 µM) was greater than 10 µM. For the same compound, the viability, T/C [1] was 92.7%, the viability, T/C [2] was 111% and the viability, T/C (second compound 0.0316 µM, first compound 0.316 µM) was 101%. For the same compound, the viability, T/C (second compound 0.0316 µM, first compound 1 µM) was 113%, the viability, T/C (second compound 0.0316 µM, first compound 3.16 µM) was 89.8% and the viability, T/C (second compound 0.0316 µM, first compound 10 µM) was 81.4%. The viability, T/C [3] was 103%, the viability, T/C [4] was 91.2% and the viability, T/C (second compound 0.1 µM, first compound 0.316 µM) was 119%. The viability, T/C (second compound 0.1 µM, first compound 1 µM) was 87%, the viability, T/C (second compound 0.1 µM, first compound 3.16 µM) was 82.5% and the viability, T/C (second compound 0.1 µM, first compound 10 µM) was 85.3%. For the same compound, the viability, T/C [5] was 92%, the viability, T/C [6] was 93.3% and the viability, T/C (second compound 0.316 µM, first compound 0.316 µM) was 101%. It also gave a viability, T/C (second compound 0.316 µM, first compound 1 µM) of 101%, a viability, T/C (second compound 0.316 µM, first compound 3.16 µM) of 95.1% and a viability, T/C (second compound 0.316 µM, first compound 10 µM) of 68%. It also gave a viability, T/C [7] of 116%, a viability, T/C [8] of 99.8% and a viability, T/C (second compound 1 µM, first compound 0.316 µM) of 95.1%. It also gave a viability, T/C (second compound 1 µM, first compound 1 µM) of 85.6%, a viability, T/C (second compound 1 µM, first compound 3.16 µM) of 91.5% and a viability, T/C (second compound 1 µM, first compound 10 µM) of 78.5%. For the same compound, the viability, T/C [9] was 104%, the viability, T/C [10] was 95% and the viability, T/C (second compound 3.16 µM, first compound 0.316 µM) was 101%. The viability, T/C (second compound 3.16 µM, first compound 1 µM) was 96.8%, the viability, T/C (second compound 3.16 µM, first compound 3.16 µM) was 84.3% and the viability, T/C (second compound 3.16 µM, first compound 10 µM) was 89.5%. It also gave a viability, T/C [11] of 91.1%, a viability, T/C [12] of 94.2% and a viability, T/C (second compound 10 µM, first compound 0.316 µM) of 101%. It also gave a viability, T/C (second compound 10 µM, first compound 1 µM) of 95.4%, a viability, T/C (second compound 10 µM, first compound 3.16 µM) of 88.7% and a viability, T/C (second compound 10 µM, first compound 10 µM) of 69.1%.
For `Cn1ncnc1[C@H]1c2n[nH]c(=O)c3cc(F)cc(c23)N[C@@H]1c1ccc(F)cc1` + Nc1ccc(C#CCN(C(=O)Cc2ncc(C(F)(F)F)cc2C(F)(F)F)c2ccc(F)cc2)nn1, the IC50 (second compound 0.0316 µM) was greater than 0.1 µM, the IC50 (second compound 0.1 µM) was greater than 0.1 µM and the IC50 (second compound 0.316 µM) was greater than 0.1 µM. The IC50 (second compound 1 µM) was greater than 0.1 µM, the IC50 (second compound 3.16 µM) was greater than 0.1 µM and the IC50 (second compound 10 µM) was greater than 0.1 µM. It also gave a viability, T/C (second compound 0.0316 µM, first compound 0.000316 µM) of 107%, a viability, T/C (second compound 0.0316 µM, first compound 0.001 µM) of 101% and a viability, T/C (second compound 0.0316 µM, first compound 0.00316 µM) of 97.2%. For the same compound, the viability, T/C (second compound 0.0316 µM, first compound 0.01 µM) was 98.6%, the viability, T/C [1] was 99.9% and the viability, T/C [2] was 108%. For the same compound, the viability, T/C (second compound 0.1 µM, first compound 0.000316 µM) was 115%, the viability, T/C (second compound 0.1 µM, first compound 0.001 µM) was 94% and the viability, T/C (second compound 0.1 µM, first compound 0.00316 µM) was 111%. The viability, T/C (second compound 0.1 µM, first compound 0.01 µM) was 95.5%, the viability, T/C [3] was 107% and the viability, T/C [4] was 101%. It also gave a viability, T/C (second compound 0.316 µM, first compound 0.000316 µM) of 107%, a viability, T/C (second compound 0.316 µM, first compound 0.001 µM) of 113% and a viability, T/C (second compound 0.316 µM, first compound 0.00316 µM) of 95.1%. For the same compound, the viability, T/C (second compound 0.316 µM, first compound 0.01 µM) was 113%, the viability, T/C [5] was 125% and the viability, T/C [6] was 89.9%. The viability, T/C (second compound 1 µM, first compound 0.000316 µM) was 107%, the viability, T/C (second compound 1 µM, first compound 0.001 µM) was 106% and the viability, T/C (second compound 1 µM, first compound 0.00316 µM) was 102%. The viability, T/C (second compound 1 µM, first compound 0.01 µM) was 107%, the viability, T/C [7] was 102% and the viability, T/C [8] was 113%. For the same compound, the viability, T/C (second compound 3.16 µM, first compound 0.000316 µM) was 103%, the viability, T/C (second compound 3.16 µM, first compound 0.001 µM) was 103% and the viability, T/C (second compound 3.16 µM, first compound 0.00316 µM) was 94.4%. For the same compound, the viability, T/C (second compound 3.16 µM, first compound 0.01 µM) was 105%, the viability, T/C [9] was 98.2% and the viability, T/C [10] was 105%. It also gave a viability, T/C (second compound 10 µM, first compound 0.000316 µM) of 96.3%, a viability, T/C (second compound 10 µM, first compound 0.001 µM) of 93.3% and a viability, T/C (second compound 10 µM, first compound 0.00316 µM) of 88.1%. For the same compound, the viability, T/C (second compound 10 µM, first compound 0.01 µM) was 102%, the viability, T/C [11] was 87.2% and the viability, T/C [12] was 90.7%.
